This assay deals with rhodopsin (light-activated, metarhodopsin II) (Bos taurus, UniProt P02699). Kind of assay: UV/Visible extra Meta II stabilization assay. Format: binding.

The text below walks through data of article PMC5983371 (Experimental eye research, 2018).

Chain of rhodopsin (light-activated, metarhodopsin II) (P02699 whole entry): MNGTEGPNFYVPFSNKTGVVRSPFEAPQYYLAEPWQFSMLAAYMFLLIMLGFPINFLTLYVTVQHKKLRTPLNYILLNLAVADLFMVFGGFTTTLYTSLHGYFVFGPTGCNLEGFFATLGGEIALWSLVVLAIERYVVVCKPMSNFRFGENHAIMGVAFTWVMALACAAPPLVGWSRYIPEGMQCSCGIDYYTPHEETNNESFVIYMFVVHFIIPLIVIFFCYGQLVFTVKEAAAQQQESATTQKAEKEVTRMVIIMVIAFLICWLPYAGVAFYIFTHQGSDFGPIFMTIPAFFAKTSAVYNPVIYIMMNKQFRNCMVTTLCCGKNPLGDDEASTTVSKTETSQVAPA

The term EC50 denotes the concentration that produces a half-maximal response. A high value points to lower potency in that assay. In the case of `C[C@H](CCC(=O)NCCS(=O)(=O)O)[C@H]1CC[C@H]2[C@@H]3[C@@H](O)C[C@@H]4C[C@H](O)CC[C@]4(C)[C@H]3CC[C@]12C` [TUDCA, Tauroursodeoxycholic acid], the EC50 came out at 450 µM.
